Measurements taken from patent US12606541B2, “PPARg modulators and methods of use” (Eisai R&D Management Co., Ltd., priority 2020, dated 2026).
Where two headings read alike, the source gives them in different places.

Key:
[1] = molecular target: T1, His6-TEV-PPARγ-(234-505) (Homo sapiens, UniProt P37231); test: TR-FRET Assay to Measure Co-R Peptide Recruitment to PPARγ; type: biochemical; conditions: Co-R peptide (SMRT-ID2) recruitment; top final concentration 20 μM; read-out: TR-FRET i-Ag; AC50
T1 construct: The His6-TEV-PPARγ-(234-505) protein for assay was expressed and purified; TEV cleavage site (N); made in house
T1 sequence (P37231 234-505): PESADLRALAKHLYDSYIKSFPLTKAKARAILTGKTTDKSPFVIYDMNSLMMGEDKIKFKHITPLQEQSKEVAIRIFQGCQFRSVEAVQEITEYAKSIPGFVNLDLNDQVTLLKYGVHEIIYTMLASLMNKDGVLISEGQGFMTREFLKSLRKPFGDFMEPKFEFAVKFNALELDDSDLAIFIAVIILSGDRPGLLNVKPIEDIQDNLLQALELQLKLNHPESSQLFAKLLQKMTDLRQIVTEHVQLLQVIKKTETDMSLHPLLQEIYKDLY
In short: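 His-tagged PPARγ (or controls) was preincubated with compound for 20 minutes at room temperature, then 5 nM anti-His terbium antibody and 200 nM FITC-labeled SMRT-ID2 corepressor peptide (final) were added for a further hour. TR-FRET signal was normalized to percent response using 500 nM T0070907 and DMSO controls.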

[2] = test system: UM-UC-9 engineered cells; test: Cell proliferation / short-term viability assay, CellTiter-Glo 144 h; type: cell-based, human; conditions: read-out: CTGlo 144 h UMUC9.5, G150
Protocol: Cell Seeding for Proliferation Assay
UM-UC-9 engineered cells were cultured in Dulbecco's Modified Eagle Medium (DMEM) supplemented with 10% FBS, 25 mM glucose (high glucose), 4.0 mM L-glutamine, 2.0 mM GlutaMAX™, 1.0 mM pyruvate, 1.0% non-essential amino acids (NEAA) in a 95% humidified incubator at 37° C. with 5% CO2. Cell banks of UM-UC-9 engineered assay-ready cells (ARCs) were prepared from a very active growth stage. Vials of ARCs containing approximately 5×10^6 cells per vial were stored in liquid nitrogen vapor phase cryostorage until use.
For making assay plates, ARCs were recovered from cryostorage, strained in a […] cell strainer, verified for cell viability >90% and counted using a cell counter (Cellometer Auto 1000, Nexelom). Each cell line was seeded into 384-well plates (50 μl/well) using DMEM medium at a density previously determined to be in log growth phase 7 days post-seeding (500 cells/well) using a bulk reagent dispenser (Multidrop™ Combi, Thermo Scientific) with a large-bore plastic-tip cassette pre-sanitized with 70% ethanol. One plate of cells was designated as the pretreatment time-zero (T0) control. Freshly seeded plates were allowed to sit lidded for 30 minutes within a biosafety cabinet for cells to settle distributed within the plate wells uniformly and then placed into an automated incubator (STX110, Liconic) at 37° C., 5% CO2, and 95% relative humidity.
Preparation of Test Compound in Assay-Ready Plate
Compounds were stored in a low-temperature sample archive as 10 mM dimethyl sulfoxide (DMSO) solutions at −20° C. under reduced humidity (−45° C. dew point) and protected from light. All samples in the automated archive are stored in 2D barcoded polypropylene tubes, tracked through a laboratory information management system (LIMS), and have been verified for identity and purity by NMR (Chemistry, H3 Biomedicine) and by LCMS (Analytical Chemistry, H3 Biomedicine) at the time of sample registration. Identity by mass matching and purity are again verified at the time of sample request fulfillment by redundant LCMS methods (acidic and basic separation protocols; Analytical Chemistry, H3 Biomedicine). Samples retrieved from low-temperature archive storage were solubilized by heated sonication (Bransonic® Ultrasonic Bath, Branson), transferred (Microlab Starlet, Hamilton) and serially-diluted (Viaflo Assist, Integra) by low-volume liquid handlers, and tracked in LIMS by automation log files to create a ID barcoded master dose-response plate (MDR) to serve as a standard source for all assay-ready plates (ARP) used within an experiment. ARPs prepared by acoustic transfer (ATS-100, EDC) of nL volumes from the MDR source were heat-sealed (PlateLoc, Agilent) and stored at −20° C. prior to use (<7 days from production). Tracking of liquid transfers via acoustic dispenser log files were used to update the LIMS system for all ARP plate maps.
Measurement of Pretreatment Control Cells and Sample Anti-Proliferative Effects on Treated Cells
On day 0 (pretreatment cells) or day 7 (treated cells), a cell proliferation assay was performed using an automated robotic assay platform (ACell, High-Res Biosolutions). Cell ARP's were removed from incubation, their plate lid discarded, and using a bulk reagent dispenser (Multidrop™ Combi, Thermo Scientific with a small-bore metal-tip cassette) 25 μL (1/2 volume) of Cell Titer-Glo® 2.0 Cell Viability Assay reagent (Promega) was added to wells of columns 1-23 (column 24 will be used as plate background or positive control). Cell ARP's were incubated at room temperature in an automation hotel position for a total of 1.0 minute while the next plate was delivered to the bulk reagent dispenser and then lid-free cell ARP's were returned to incubate at 37° C. for 2.5 hours. […]

SMILES | AC50 [1] [nM] | IC50 ([2]; Homo sapiens, UM-UC-9, 144 h) [nM] | IC50 [2] [nM]
CCOC1(C(F)(F)F)CCC(NC(=O)[C@H]2CCN(C(=O)c3cc(-c4cc(C)ncn4)[nH]n3)C3(CC3)C2)CC1 (mixture of isomers) [Example 308-A, (S)—N-(4-ethoxy-4-(trifluoromethyl)cyclohexyl)-4-(5-(6-methylpyrimidin-4-yl)-1H-pyrazole-3-carbonyl)-4-azaspiro[2.5]octane-7-carboxamide] | 2.8 | 5.6 | 
CCOC1(C(F)(F)F)CCC(NC(=O)[C@@H]2CCN(C(=O)c3cc(-c4cc(C)ncn4)[nH]n3)C3(CC3)C2)CC1 (mixture of isomers) [Example 308-B, (R)—N-(4-ethoxy-4-(trifluoromethyl)cyclohexyl)-4-(5-(6-methylpyrimidin-4-yl)-1H-pyrazole-3-carbonyl)-4-azaspiro[2.5]octane-7-carboxamide] | 548 | 1010 | 
COc1cc(-c2cc(C(=O)N3[C@@H]4CC[C@H]3C[C@H](C(=O)NC3CCC5(CC3)OCCC5(F)F)C4)n[nH]2)c(F)cn1 (mixture of isomers) [Example 320, (1R,3s,5S)—N-(4,4-difluoro-1-oxaspiro[4.5]decan-8-yl)-8-(5-(5-fluoro-2-methoxypyridin-4-yl)-1H-pyrazole-3-carbonyl)-8-azabicyclo[3.2.1]octane-3-carboxamide] | 10.4 | 29.5 | 
COc1cc(-c2cc(C(=O)N3CCC(C(=O)NCC4CCc5n[nH]cc5C4)CC34CC4)[nH]n2)c(F)cn1 (mixture of isomers) [Example 341, (S)-4-(3-(5-fluoro-2-methoxypyridin-4-yl)-1H-pyrazole-5-carbonyl)-N—(((R)-4,5,6,7-tetrahydro-2H-indazol-5-yl)methyl)-4-azaspiro[2.5]octane-7-carboxamide and (S)-4-(3-(5-fluoro-2-methoxypyridin-4-yl)-1H-pyrazole-5-carbonyl)-N—(((S)-4,5,6,7-tetrahydro-2H-indazol-5-yl)methyl)-4-azaspiro[2.5]octane-7-carboxamide] | 5 |  | 10.3
COc1cc(-c2cc(C(=O)N3CCC(C(=O)NCC4CCn5cncc5C4)CC34CC4)[nH]n2)c(F)cn1 (mixture of isomers) [Example 342, (8)-4-(3-(5-fluoro-2-methoxypyridin-4-yl)-1H-pyrazole-5-carbonyl)-N—(((R)-5,6,7,8-tetrahydroimidazo[1,5-a]pyridin-7-yl)methyl)-4-azaspiro[2.5]octane-7-carboxamide and (S)-4-(3-(5-fluoro-2-methoxypyridin-4-yl)-1H-pyrazole-5-carbonyl)-N—(((S)-5,6,7,8-tetrahydroimidazo[1,5-a]pyridin-7-yl)methyl)-4-azaspiro[2.5]octane-7-carboxamide] | 78.3 |  | 1130
COc1cc(-c2cc(C(=O)N3CCC(C(=O)NCC4CCn5c(C)nnc5C4)CC34CC4)[nH]n2)c(F)cn1 (mixture of isomers) [Example 346, (S)-4-(3-(5-fluoro-2-methoxypyridin-4-yl)-1H-pyrazole-5-carbonyl)-NVR)-3-methyl-5,6,7,8-tetrahydro-[1,2,4]triazolo[4,3-a]pyridin-7-yl)methyl)-4-azaspiro[2.5]octane-7-carboxamide and (8)-4-(3-(5-fluoro-2-methoxypyridin-4-yl)-1H-pyrazole-5-carbonyl)-N—(((S)-3-methyl-5,6,7,8-tetrahydro-[1,2,4]triazolo[4,3-a]pyridin-7-yl)methyl)-4-azaspiro[2.5]octane-7-carboxamide] | 371 |  | > 10000
COc1cc(-c2cc(C(=O)N3CCC(NC(=O)C4CCC(O)(C(F)(F)F)CC4)CC34CC4)n[nH]2)c(F)cn1 (mixture of isomers) [Example 347] | 317 |  | 1860
COc1cc(-c2cc(C(=O)N3CCC(C(=O)NCC4CCc5nccn5C4)CC34CC4)n[nH]2)c(F)cn1 (mixture of isomers) [Example 356, (S)-4-(5-(5-fluoro-2-methoxypyridin-4-yl)-1H-pyrazole-3-carbonyl)-N—(((S)-5,6,7,8-tetrahydroimidazo[1,2-a]pyridin-6-yl)methyl)-4-azaspiro[2.5]octane-7-carboxamide and (S)-4-(5-(5-fluoro-2-methoxypyridin-4-yl)-1H-pyrazole-3-carbonyl)-N—(((R)-5,6,7,8-tetrahydroimidazo[1,2-a]pyridin-6-yl)methyl)-4-azaspiro[2.5]octane-7-carboxamide] | 113 |  | 4790
COc1cc(-c2cc(C(=O)N3CCC(C(=O)N[C@H]4CC[C@@](O)(C(F)(F)F)CC4)C[C@@H]3C(F)(F)F)n[nH]2)c(F)cn1 (mixture of isomers) [Example 368, (2R,4R)-1-(5-(5-fluoro-2-methoxypyridin-4-yl)-1H-pyrazole-3-carbonyl)-N-((1r,4R)-4-hydroxy-4-(trifluoromethyl)cyclohexyl)-2-(trifluoromethyl)piperidine-4-carboxamide and (2R,4S)-1-(5-(5-fluoro-2-methoxypyridin-4-yl)-1H-pyrazole-3-carbonyl)-N-((1r,4S)-4-hydroxy-4-(trifluoromethyl)cyclohexyl)-2-(trifluoromethyl)piperidine-4-carboxamide] | 244 | 497 | 
COc1cc(-c2cc(C(=O)N3CC[C@H](C(=O)NCC4CCS(=N)(=O)C4(C)C)CC34CC4)n[nH]2)c(F)cn1 (mixture of isomers) [Example 372-A] | 696 | > 10000 | 
COc1cc(-c2cc(C(=O)N3CCC(C(=O)NC(C)c4ncc(F)cc4Cl)CC34CC4)n[nH]2)c(F)cn1 (mixture of isomers) [Example 377, (S)—N—((R)-1-(3-chloro-5-fluoropyridin-2-yl)ethyl)-4-(5-(5-fluoro-2-methoxypyridin-4-yl)-1H-pyrazole-3-carbonyl)-4-azaspiro[2.5]octane-7-carboxamide and (S)—N—((S)-1-(3-chloro-5-fluoropyridin-2-yl)ethyl)-4-(5-(5-fluoro-2-methoxypyridin-4-yl)-1H-pyrazole-3-carbonyl)-4-azaspiro[2.5]octane-7-carboxamide] | 20.2 |  | 25.9
COc1cc(-c2cc(C(=O)N3CCC(C(=O)NC4C(C)(C)C(N5CCC(F)(F)C5)C4(C)C)CC34CC4)n[nH]2)c(F)cn1 (mixture of isomers) [Example 378, (S)—N-((1s,3R)-3-(3,3-difluoropyrrolidin-1-yl)-2,2,4,4-tetramethylcyclobutyl)-4-(5-(5-fluoro-2-methoxypyridin-4-yl)-1H-pyrazole-3-carbonyl)-4-azaspiro[2.5]octane-7-carboxamide and (S)—N-((1r,3S)-3-(3,3-difluoropyrrolidin-1-yl)-2,2,4,4-tetramethylcyclobutyl)-4-(5-(5-fluoro-2-methoxypyridin-4-yl)-1H-pyrazole-3-carbonyl)-4-azaspiro[2.5]octane-7-carboxamide] | 130 |  | 224
